In US5574055A, “Oxazolidinone derivatives” (Hoffmann-La Roche Inc., priority 1993, dated 1996) one finds IC50 data, which are given here for 21 molecules.

Structures can show the parent of a compound that is named as a salt.

The target in this test is monoamine oxidase (MAO). Nature of the test: MAO inhibition in vitro (brain). Type of test: biochemical. Conditions: rat brain homogenate, 14C-5-HT or 14C-PEA as substrate (which one not given), pH 7.4, 37° C., 30 min pre-incubation, 10 min incubation. The method, then:
The MAO inhibiting activity of the compounds in accordance with the invention can be determined using standard methods.
The preparations to be tested were investigated in the in vitro test described hereinafter, which was based on the method of R. J. Wurtmann and J. A. Axelrod [Biochem. Pharmac. 12, 1439-41 (1963).
Isolated rat brains are homogenized in 0.1 molar potassium phosphate buffer (pH 7.4) in the ratio 1:9 (weight/volume), whereupon the homogenate is diluted with the same buffer in the ratio 1:4 (volume/volume) and stored at -20° C. A mixture of the following composition is used for the incubation:
100 μl of 1M phosphate buffer (pH 7.4);
100 μl of solubilizate of the substance to be tested in water or in aqueous dimethyl sulfoxide;
50 μl of rat brain homogenate; and as the substrate
50 μl of ^14 C-labelled serotonin (5-HT) or ^14 C-phenylethylamine (PEA), in each instance 100,000 decay per minute, corresponding to a final concentration of 2·10^-4 mol/l and, respectively, 2·10^-5 mol/l.
A pre-incubation at 37° C. is effected for 30 minutes prior to the addition of the substrate. The incubation (in the presence of the substrate) is likewise effected at 37° C. and lasts for 10 minutes. The reaction is stopped by the addition of 200 μl of 2N hydrochloric acid. In order to extract the deaminated product, the mixture is shaken for 10 minutes with 5 ml of diethyl ether or with 5 ml of n-heptane depending on whether 5-HT or PEA is used as the substrate, whereupon the mixture is centrifuged, the aqueous phase is frozen in a dry-ice bath and the organic phase is transferred into a counting glass.
The activity of the MAO in comparison to the control homogenates is determined on the basis of the β-counter values.
Under the above test conditions the activity is linear with respect to time and to the concentration of the homogenizate. The IC50 values were determined graphically as a log of the concentration-activity curve. The IC50 was defined as that concentration of a substance to be tested which reduces the activity of the MAO upon the substrate 5-HT or PEA by 50%.
Consider `COCC1CN(c2ccc(C3CCC(CO)CC3)cc2)C(=O)O1` (racemic) [Example 38, (RS)-3-[4-(Cis- and trans-4-Hydroxymethyl-cyclohexyl)-phenyl]-5-methoxymethyl-oxazolidin-2-one], for which the midpoint of inhibition, the IC50, lay at 3 nM.

The molecule `O=C1OC(CO)CN1c1ccc(C2CCCCC2)cc1` (racemic) [Example 1, (RS)-3-(4-Cyclohexyl-phenyl)-5-hydroxymethyl-oxazolidin-2-one] came in with a concentration for half-maximal inhibition (IC50) of 8.5 nM.

Molecule `COCC1CN(c2ccc([C@H]3CC[C@H](O)CC3)cc2)C(=O)O1` (mixture of isomers) [Example 8, (RS)-3-[4(trans-4-Hydroxy-cyclohexyl)-phenyl]-5-methoxymethyl-oxazolidin-2-one] yielded a half-maximal inhibitory concentration (IC50) of 8.4 nM.

`COC[C@H]1CN(c2ccc(OCC[C@@H](O)C(F)(F)F)cc2)C(=O)O1` [Befloxaton, reference compound]: the half-maximal inhibitory concentration (IC50) was determined as 1.9 nM.

Molecule `COCC1CN(c2ccc(C3CC4C=CC3C4)cc2)C(=O)O1` (stereo not drawn) [Example 18, 3-[(1RS,2SR,4RS)-4-Bicyclo[2.2.1]hept-5-en-2-yl-phenyl]-5-methoxymethyl-oxazolidin-2-one (R:S=1:1)] yielded a 50% inhibitory concentration (IC50) of 9 nM.

Molecule `COCC1CN(c2ccc([C@H]3CC[C@H](OC)CC3)cc2)C(=O)O1` (stereo partly drawn) [Example 16] registered a concentration for half-maximal inhibition (IC50) of 6 nM.

`COCC1CN(c2ccc([C@H]3CC[C@H](OCC#N)CC3)cc2)C(=O)O1` (mixture of isomers) [Example 66, (RS)-[trans-4-[4-(5-Methoxymethyl-2-oxo-oxazolidin-3-yl)-phenyl]-cyclohexyloxy]-acetonitrile] registered an IC50 of 2 nM.

The molecule `COC[C@H]1CN(c2ccc([C@H]3CC[C@H](OCC#N)CC3)cc2)C(=O)O1` [Example 63, (R)-[trans-4-[4-(5-Methoxymethyl-2-oxo-oxazolidin-3-yl)-phenyl]-cyclohexyloxy]-acetonitrile] gave a half-inhibitory concentration (IC50) of 1.6 nM.

`COC[C@H]1CN(c2ccc([C@H]3CC[C@H](OCCCN)CC3)cc2)C(=O)O1` [Example 71, (R)-3-[trans-4-(3-Amino-propoxy)-cyclohexyl]-phenyl]-5-methoxymethyl-oxazolidin-2-one hydrochloride] registered an IC50 of 33 nM.

`COCC1CN(c2ccc(C3CCC(=O)CC3)cc2)C(=O)O1` (racemic) [Example 7, (RS)-3-[4-(4-Oxo-cyclohexyl)-phenyl]-5-methoxymethyl-oxazolidin-2-one] gave an IC50 of 10 nM.

In turn, `COCC1CN(c2ccc([C@H]3CC[C@H](OCCN)CC3)cc2)C(=O)O1` (stereo partly drawn) [Example 68, (RS)-3-[trans-4-[4-(5-Methoxymethyl-2-oxo-oxazolidin-3-yl)-phenyl]-cyclohexyloxy]ethanamine.HCl] registered an IC50 of 74 nM.

Molecule `COCC1CN(c2ccc([C@H]3CC[C@H](CC#N)CC3)cc2)C(=O)O1` (mixture of isomers) [Example 49, (RS)-[trans-4-[4-(5-Methoxymethyl-2-oxo-oxazolidin-3-yl)-phenyl]-cyclohexyl]-acetonitrile] showed a 50% inhibitory concentration (IC50) of 0.9 nM.

Molecule `COCC1CN(c2ccc(C3CCC(C)(O)CC3)cc2)C(=O)O1` (stereo not drawn) [Example 39, (RS)-3-[4-(cis or trans-4-Hydroxy-4-methyl-cyclohexyl)-phenyl]-5-methoxymethyl-oxazolidin-2-one] came in with a half-maximal inhibitory concentration (IC50) of 4 nM.

`COC[C@H]1CN(c2ccc([C@H]3CC[C@H](O)CC3)cc2)C(=O)O1` [Example 15, (R)-3-[4-(trans-4-Hydroxy-cyclohexyl)-phenyl]-5-methoxymethyl-oxazolidin-2-one]: the IC50 is 8.5 nM.

The molecule `COCC1CN(c2ccc(C3CCN(C(=O)/C=C/c4ccccc4)CC3)cc2)C(=O)O1` (racemic) [Example 59, (RS)-4-[4-(5-Methoxymethyl-2-oxo-oxazolidin-3-yl)-phenyl]-1-(1-oxo-3-phenyl-2,(E)-propenyl)-piperidine] had an IC50 of 10 nM.

Molecule `COCC1CN(c2ccc([C@H]3CC[C@H](OC(C)=O)CC3)cc2)C(=O)O1` (mixture of isomers) [Example 33, Acetic acid (RS)-trans-4-[4-(5-methoxymethyl-2-oxo-oxazolidin-3-yl)-phenyl]-cyclohexylester] displayed an IC50 of 10 nM.

`COCC1CN(c2ccc(C3CCCCC3)cc2)C(=O)O1` (racemic) [Example 2, (RS)-3-(4-Cyclohexyl-phenyl)-5-methoxymethyl-oxazolidin-2-one] returned an IC50 of 2 nM.

On to `COC[C@H]1CN(c2ccc(C3CCC(=O)CC3)cc2)C(=O)O1` [Example 14, (R)-3-[4-(4-Oxo-cyclohexyl)-phenyl]-5-methoxymethyl-oxazolidin-2-one], for which the IC50 came out at 1 nM.

On to `COC[C@H]1CN(c2ccc(C3CCCCC3)cc2)C(=O)O1` [Example 6, (R)-3-(4-Cyclohexyl-phenyl)-5-methoxymethyl-oxazolidin-2-one], for which the IC50 was found to be 0.1 nM.

With `COC[C@H]1CN(c2ccc([C@H]3CC[C@H](CC#N)CC3)cc2)C(=O)O1` [Example 50], the half-maximal inhibitory concentration (IC50) worked out at 1 nM.

On to `COCC1CN(c2ccc([C@H]3CC[C@H](OCCC#N)CC3)cc2)C(=O)O1` (mixture of isomers) [Example 30, (RS)-3-[trans-4-[4-(5-Methoxymethyl-2-oxo-Oxazolidin-3-yl)-phenyl]cyclohexyloxy]-propionitrile], for which the IC50 came to 5 nM.

The IC50 is the concentration that gives 50% inhibition. Read a high IC50 as a need for much substance.
